Measurements from US20210060033A1, “ORALLY ADMINISTERED COMBINATIONS OF BETA-LACTAM ANTIBIOTICS AND AVIBACTAM DERIVATIVES FOR TREATING BACTERIAL INFECTIONS” (priority 2019, published 2021).
Counter-ions that a name gives are not always drawn.

Tests used:
[1] = system: pooled Enterobacteriaceae isolates; test: Pharmacokinetic-pharmacodynamic analyses (Hill-type models) of the 400 mg ceftibuten dose-ranging studies; format: cell-based; conditions: 400 mg of ceftibuten, 24 hours
Method: Data from the avibactam dose-ranging studies, in combination with 400 mg q8h of ceftibuten, were evaluated using Hill models and non-linear least squares regression. All data was weighted using the inverse of the estimated measurement variance. […] The relationships between change in log10 CFU/mL and percent time above avibactam concentration thresholds (Ct) ranging from 0.125 mg/L to 2 mg/L were also evaluated.

[2] = human; cited from earlier work
K. pneumoniae 19701 = test: One-compartment in vitro infection (chemostat) model, K. pneumoniae 19701; format: cell-based, Klebsiella pneumoniae; conditions: for Average Log10 CFU/mL (+/− Range of Data), 5 × Ceftibuten + Avibactam at 4 mg/L MIC: Ceftibuten 400 mg q8h
E. cloacae 4184 = test: One-compartment in vitro infection (chemostat) model, E. cloacae 4184; format: cell-based, Enterobacter cloacae; conditions: for Average Log10 CFU/mL (+/− Range of Data), 5 × Ceftibuten + Avibactam at 4 mg/L MIC: Ceftibuten 400 mg q8h
E. coli 136-4643 = test: One-compartment in vitro infection (chemostat) model, E. coli 136-4643; format: cell-based, Escherichia coli; conditions: E. coli 4643; for Average Log10 CFU/mL (+/− Range of Data), 5 × Ceftibuten + Avibactam at 4 mg/L MIC: Ceftibuten 400 mg q8h
[3] = system: ESBL-positive isolates (n = 28); format: cell-based, Enterobacteriaceae; conditions: ESBL n = 28; avibactam or clavulanic acid fixed at 4 μg/mL in combinations
[4] = system: OXA-positive isolates (n = 22); format: cell-based, Enterobacteriaceae; conditions: OXA n = 22; avibactam or clavulanic acid fixed at 4 μg/mL in combinations
[5] = system: KPC-positive isolates (n = 23); format: cell-based, Enterobacteriaceae; conditions: KPC n = 23; avibactam or clavulanic acid fixed at 4 μg/mL in combinations
[6] = system: pAmpC (PlasAmpC) isolates (n = 20); format: cell-based, Enterobacteriaceae; conditions: pAmpC n = 20; avibactam or clavulanic acid fixed at 4 μg/mL in combinations
314 Enterobacteriaceae = format: cell-based; conditions: all isolates combined; avibactam at a fixed concentration of 4 μg/mL
[7] = system: ESBL-, KPC-, and OXA-positive isolates; format: cell-based, Enterobacteriaceae; conditions: avibactam 4 μg/mL
[8] = MIC determined using 4 mg/L of avibactam
[9] = MIC determined using 8 mg/L of avibactam
[10] = MIC determined using a 1:1 ratio of ceftibuten:avibactam
[11] = ceftibuten 200 mg q8h monotherapy
[12] = ceftibuten 400 mg q8h monotherapy

In the case of NC(=O)[C@@H]1CC[C@@H]2CN1C(=O)N2OS(=O)(=O)O [avibactam, [2S,5R]-2-carbamoyl-7-oxo-1,6-diazabicyclo[3.2.1]octan-6-yl hydrogen sulfate], the “Avibactam free-drug plasma % T > Concentration threshold value, target 1-log” value ([1]; Ct 0.5 mg/L of avibactam) is reported as 97.6%, the “Avibactam free-drug plasma % T > Concentration threshold value, target 2-log” value ([1]; Ct 0.5 mg/L of avibactam) is reported as 98.2% and the “Avibactam free-drug plasma % T > Concentration threshold value, target Stasis” value ([1]; Ct 0.5 mg/L of avibactam) is reported as 96.9%. For the same molecule, the “Avibactam free-drug plasma % T > Concentration threshold value, target 1-log” value ([1]; Ct 1 mg/L of avibactam) was 85.2%, the “Avibactam free-drug plasma % T > Concentration threshold value, target 2-log” value ([1]; Ct 1 mg/L of avibactam) was 93.6% and the “Avibactam free-drug plasma % T > Concentration threshold value, target Stasis” value ([1]; Ct 1 mg/L of avibactam) was 76.0%. For the same molecule, the “Avibactam free-drug plasma % T > MIC value, target 1-log” value [1, 8] was 58.0%, the “Avibactam free-drug plasma % T > MIC value, target 2-log” value [1, 8] was 66.3% and the “Avibactam free-drug plasma % T > MIC value, target Stasis” value [1, 8] was 53.2%. For the same molecule, the “Avibactam free-drug plasma AUC:MIC value, target 1-log” value [1, 8] was 30.8, the “Avibactam free-drug plasma AUC:MIC value, target 2-log” value [1, 8] was 34.2 and the “Avibactam free-drug plasma AUC:MIC value, target Stasis” value [1, 8] was 28.7. The “Avibactam free-drug plasma % T > MIC value, target 1-log” value [1, 9] was 79.4%, the “Avibactam free-drug plasma % T > MIC value, target 2-log” value [1, 9] was 80.4% and the “Avibactam free-drug plasma % T > MIC value, target Stasis” value [1, 9] was 78.7%. The “Avibactam free-drug plasma AUC:MIC value, target 1-log” value [1, 9] was 67.0, the “Avibactam free-drug plasma AUC:MIC value, target 2-log” value [1, 9] was 128 and the “Avibactam free-drug plasma AUC:MIC value, target Stasis” value [1, 9] was 38.0. For the same molecule, the “Avibactam free-drug plasma % T > MIC value, target 1-log” value [1, 10] was 11.1%, the “Avibactam free-drug plasma % T > MIC value, target 2-log” value [1, 10] was 22.7% and the “Avibactam free-drug plasma % T > MIC value, target Stasis” value [1, 10] was 6.8%. For the same molecule, the “Avibactam free-drug plasma AUC:MIC value, target 1-log” value [1, 10] was 15.4, the “Avibactam free-drug plasma AUC:MIC value, target 2-log” value [1, 10] was 17.1 and the “Avibactam free-drug plasma AUC:MIC value, target Stasis” value [1, 10] was 14.4. For the same molecule, the oral bioavailability [2] was “about 6 % F”.
With Nc1nc(/C(=C/CC(=O)O)C(=O)N[C@@H]2C(=O)N3C(C(=O)O)=CCS[C@H]23)cs1 [ceftibuten, (6R,7R)-7-((Z)-2-(2-amino-4-thiazolyl)-4-carboxycrotonamido)-8-oxo-5-thia-1-azabicyclo(4.2.0)oct-2-ene-2-carboxylic acid] the “Average Log10 CFU/mL (+/− Range of Data), 5 × Ceftibuten + Avibactam at 4 mg/L MIC” value (shortened to “Average Log10 CFU/mL (+/− Range of Data)”) (K. pneumoniae 19701; 0 h) was 0 (0) Log10 CFU/mL, the “Average Log10 CFU/mL (+/− Range of Data)” value (K. pneumoniae 19701; 24 h) was 1.67 (1.17) Log10 CFU/mL and the “bacterial burden response over 24 hours” value (K. pneumoniae 19701; [11]) was “no activity”. The “bacterial burden response over 24 hours” value (K. pneumoniae 19701; [12]) was “did not reduce the bacterial burden”, the “Average Log10 CFU/mL (+/− Range of Data)” value (E. cloacae 4184; 0 h) was 0.99 (0.31) Log10 CFU/mL and the “Average Log10 CFU/mL (+/− Range of Data)” value (E. cloacae 4184; 24 h) was 1.68 (0.20) Log10 CFU/mL. The “bacterial burden response over 24 hours” value (E. cloacae 4184; [11]) was “no activity”, the “bacterial burden response over 24 hours” value (E. cloacae 4184; [12]) was “did not reduce the bacterial burden” and the “Average Log10 CFU/mL (+/− Range of Data)” value (E. coli 136-4643; 0 h) was 0 (0) Log10 CFU/mL. For the same molecule, the “Average Log10 CFU/mL (+/− Range of Data)” value (E. coli 136-4643; 24 h) was 0 (0) Log10 CFU/mL, the “bacterial burden response over 24 hours” value (E. coli 136-4643; ceftibuten 400 mg q8h monotherapy, first 4 hours, regrowth matching control by 12 hours) was “slight initial reduction in bacterial burden” and the “Estimated MIC90” value [3] was greater than 32 µg/mL. The “Estimated MIC90” value [4] was greater than 32 µg/mL, the “Estimated MIC90” value [5] was greater than 32 µg/mL and the “Estimated MIC90” value [6] was greater than 32 µg/mL. For the same molecule, the “MIC90 with addition of avibactam” value (314 Enterobacteriaceae) was 0.5 µg/mL and the “reduction of MIC90 values by addition of avibactam” value [7] was “at least five doubling dilutions”.
